Results on 39 molecules are retold here after patent US11912703B2, “6-azaindole compounds” (BRISTOL-MYERS SQUIBB COMPANY, priority 2017, dated 2024).

Where two headings read alike, the source gives them in different places.

For assay [1], the target named is human TLR8 (Homo sapiens (Human), UniProt Q9NR97). Kind of assay: TLR8 inhibition reporter assay (HEK-Blue SEAP). (In general: A reporter such as luciferase makes a cellular process visible.);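 note: SEAP driven by IFN-β minimal promoter with five NF-κB and AP-1 sites, compounds tested 0.05 nM to 50 µM, 22 h incubation, inhibition relative to agonist plus DMSO wells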
Chain of human TLR8 (Q9NR97 27-1041): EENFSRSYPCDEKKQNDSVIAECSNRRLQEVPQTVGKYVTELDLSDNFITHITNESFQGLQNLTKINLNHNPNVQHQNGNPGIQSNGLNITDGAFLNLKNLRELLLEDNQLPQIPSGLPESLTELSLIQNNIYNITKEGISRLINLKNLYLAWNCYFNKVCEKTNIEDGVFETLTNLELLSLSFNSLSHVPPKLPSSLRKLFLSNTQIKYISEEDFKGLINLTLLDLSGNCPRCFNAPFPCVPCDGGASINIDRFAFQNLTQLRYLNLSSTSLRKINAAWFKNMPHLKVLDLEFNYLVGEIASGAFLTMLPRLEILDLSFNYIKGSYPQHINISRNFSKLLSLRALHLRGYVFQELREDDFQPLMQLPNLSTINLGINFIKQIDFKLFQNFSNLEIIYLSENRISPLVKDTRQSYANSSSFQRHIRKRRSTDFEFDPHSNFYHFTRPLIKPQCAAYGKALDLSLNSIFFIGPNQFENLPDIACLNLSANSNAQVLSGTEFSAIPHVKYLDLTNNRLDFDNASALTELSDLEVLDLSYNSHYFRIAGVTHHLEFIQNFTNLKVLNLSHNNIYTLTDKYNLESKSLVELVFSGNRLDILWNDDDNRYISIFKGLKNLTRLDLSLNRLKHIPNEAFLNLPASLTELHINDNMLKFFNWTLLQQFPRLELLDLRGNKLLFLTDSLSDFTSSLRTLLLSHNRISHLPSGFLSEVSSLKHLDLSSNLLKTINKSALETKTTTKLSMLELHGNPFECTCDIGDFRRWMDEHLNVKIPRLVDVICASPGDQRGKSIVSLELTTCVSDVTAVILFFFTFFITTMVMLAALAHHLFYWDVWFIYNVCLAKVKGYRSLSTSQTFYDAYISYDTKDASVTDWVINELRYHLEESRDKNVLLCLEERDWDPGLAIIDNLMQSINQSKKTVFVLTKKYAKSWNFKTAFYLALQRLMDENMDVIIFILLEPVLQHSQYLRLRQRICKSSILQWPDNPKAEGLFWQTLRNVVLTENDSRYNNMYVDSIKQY
Assay [2] concerns the target human TLR9 (Homo sapiens (Human), UniProt Q9NR96). As to the kind of experiment: TLR9 inhibition reporter assay (HEK-Blue SEAP).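 Note: SEAP driven by IFN-β minimal promoter carrying five NF-κB and AP-1 sites, 22 h at 37 °C, compounds 0.05 nM–50 µM, inhibition scaled between agonist-plus-DMSO and reference-inhibitor wells.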
Assay [3] has as its target human TLR7 (Homo sapiens (Human), UniProt Q9NYK1). Kind of assay: TLR7 inhibition reporter assay (HEK-Blue SEAP). Type of assay: cell-based. Particulars: HEK-Blue cells overexpressing human TLR7, gardiquimod 7.5 μM stimulation.
Method: HEK-Blue™-cells (Invivogen) overexpressing human TLR7, TLR8 or TLR9 receptors were used for screening inhibitors of these receptors using an inducible SEAP (secreted embryonic alkaline phosphatase) reporter gene under the control of the IFN-β minimal promoter fused to five NF-κB and AP-1-binding sites. Briefly, cells are seeded into Greiner 384 well plates (15000 cells per well for TLR7, 20,000 for TLR8 and 25,000 for TLR9) and then treated with test compounds in DMSO to yield a final dose response concentration range of 0.05 nM-50 μM. After a 30 minute compound pre-treatment at room temperature, the cells are then stimulated with a TLR7 ligand (gardiquimod at a final concentration of 7.5 μM), TLR8 ligand (R848 at a final concentration of 15.9 μM) or TLR9 ligand (ODN2006 at a final concentration of 5 nM) to activate NF-κB and AP-1 which induce the production of SEAP. After a 22 hour incubation at 37° C., 500 CO2, SEAP levels are determined with the addition of HEK-Blue™ Detection reagent (Invivogen), a cell culture medium that allows for detection of SEAP, according to manufacturer's specifications.
Setting [4] is: read-out: TLR8 IC50; HEK-Blue cells overexpressing human TLR8, R848 15.9 μM stimulation, SEAP reporter.
[5] abbreviates: read-out: TLR9 IC50; HEK-Blue cells overexpressing human TLR9, ODN2006 5 nM stimulation, SEAP reporter.
Where [6] appears, read: read-out: TLR8 IC50; HEK-Blue cells overexpressing human TLR8; R848 15.9 μM stimulation; SEAP reporter.
Setting [7] is: read-out: TLR9 IC50; HEK-Blue cells overexpressing human TLR9; ODN2006 5 nM stimulation; SEAP reporter.

Chain of human TLR7 (Q9NYK1 27-1049): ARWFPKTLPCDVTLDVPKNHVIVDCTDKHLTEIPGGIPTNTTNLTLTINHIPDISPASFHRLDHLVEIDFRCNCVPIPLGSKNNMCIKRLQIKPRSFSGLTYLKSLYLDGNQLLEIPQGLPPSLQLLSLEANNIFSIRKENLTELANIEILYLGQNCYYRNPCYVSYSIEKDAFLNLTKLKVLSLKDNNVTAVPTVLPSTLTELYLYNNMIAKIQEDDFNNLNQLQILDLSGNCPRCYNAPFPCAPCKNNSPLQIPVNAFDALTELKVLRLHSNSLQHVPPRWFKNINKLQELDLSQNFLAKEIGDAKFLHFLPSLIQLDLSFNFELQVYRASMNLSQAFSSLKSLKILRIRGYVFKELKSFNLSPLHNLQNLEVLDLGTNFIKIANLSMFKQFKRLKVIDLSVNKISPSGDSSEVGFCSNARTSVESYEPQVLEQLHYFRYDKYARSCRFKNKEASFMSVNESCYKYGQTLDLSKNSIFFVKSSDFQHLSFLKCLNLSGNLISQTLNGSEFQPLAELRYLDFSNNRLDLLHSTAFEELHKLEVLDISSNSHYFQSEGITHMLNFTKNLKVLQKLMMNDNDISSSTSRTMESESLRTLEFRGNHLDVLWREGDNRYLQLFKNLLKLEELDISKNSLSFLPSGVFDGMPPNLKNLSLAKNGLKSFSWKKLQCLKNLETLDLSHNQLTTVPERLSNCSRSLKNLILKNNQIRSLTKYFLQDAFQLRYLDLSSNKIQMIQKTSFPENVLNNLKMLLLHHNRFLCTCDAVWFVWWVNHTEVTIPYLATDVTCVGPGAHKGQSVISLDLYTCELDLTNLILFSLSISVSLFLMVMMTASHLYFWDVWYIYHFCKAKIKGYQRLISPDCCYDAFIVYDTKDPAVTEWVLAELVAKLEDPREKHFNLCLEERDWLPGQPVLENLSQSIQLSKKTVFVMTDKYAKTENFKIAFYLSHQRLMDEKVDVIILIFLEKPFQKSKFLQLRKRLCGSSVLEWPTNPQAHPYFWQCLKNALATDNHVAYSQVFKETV
Chain of human TLR9 (Q9NR96 26-1032): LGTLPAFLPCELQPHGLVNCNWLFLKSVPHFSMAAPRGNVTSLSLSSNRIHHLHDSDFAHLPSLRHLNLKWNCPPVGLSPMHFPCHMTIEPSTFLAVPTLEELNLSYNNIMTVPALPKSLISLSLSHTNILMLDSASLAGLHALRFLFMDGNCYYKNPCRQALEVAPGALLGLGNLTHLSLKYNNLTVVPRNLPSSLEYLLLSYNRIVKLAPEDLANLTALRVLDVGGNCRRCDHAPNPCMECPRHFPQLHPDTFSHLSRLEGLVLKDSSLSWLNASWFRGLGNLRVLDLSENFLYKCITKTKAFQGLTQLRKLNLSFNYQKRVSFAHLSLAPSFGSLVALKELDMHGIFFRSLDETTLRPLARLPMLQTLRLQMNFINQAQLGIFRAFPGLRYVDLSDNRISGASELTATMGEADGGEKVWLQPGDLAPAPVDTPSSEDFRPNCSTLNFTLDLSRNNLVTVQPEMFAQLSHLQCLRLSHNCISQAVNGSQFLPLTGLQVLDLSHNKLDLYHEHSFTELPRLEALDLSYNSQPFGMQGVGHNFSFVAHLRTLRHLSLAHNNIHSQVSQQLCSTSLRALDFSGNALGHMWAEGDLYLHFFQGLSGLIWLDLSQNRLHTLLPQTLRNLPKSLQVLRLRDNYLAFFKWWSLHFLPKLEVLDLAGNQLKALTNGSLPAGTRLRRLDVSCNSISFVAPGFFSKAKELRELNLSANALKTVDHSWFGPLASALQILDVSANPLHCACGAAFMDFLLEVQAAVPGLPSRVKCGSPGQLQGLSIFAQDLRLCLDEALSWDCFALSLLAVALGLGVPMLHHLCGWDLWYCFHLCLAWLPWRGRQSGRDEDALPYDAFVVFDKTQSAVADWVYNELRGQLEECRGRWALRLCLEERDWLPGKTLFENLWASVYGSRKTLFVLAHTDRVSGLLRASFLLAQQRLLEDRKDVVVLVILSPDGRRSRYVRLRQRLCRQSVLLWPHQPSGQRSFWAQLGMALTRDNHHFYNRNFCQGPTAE

For orientation: IC50 means the concentration that gives 50% inhibition. On to `COc1cc(-c2[nH]c3cnc(C4CCN(CC(F)(F)F)CC4)c(F)c3c2C(C)C)cn2ncnc12` [Example 127], for which the IC50 in assay [1] (setting [4]) was 150 nM; in assay [2] (setting [5]), more than 50000 nM; in assay [3], 47 nM.

As for `COc1cc(-c2[nH]c3cnc(C4CCN(CC(C)(C)O)CC4)cc3c2C(C)C)cn2ncnc12` [Example 296], the IC50 in assay [1] (setting [4]) is 5.4 nM; in assay [2] (setting [5]), 132 nM; in assay [3], 3.3 nM.

Consider `CCCN1CCN(c2ncc3[nH]c(-c4cc(OC)c5ncnn5c4)c(C(C)C)c3c2F)[C@H](C)C1` [Example 437], for which the results for the IC50 in assay [1], in assay [2] and in assay [3] were 6.4 nM, 7670 nM and 2.6 nM, respectively.

With `Cc1c(-c2[nH]c3cnc(C4CCC(NC5COC5)CC4)c(C)c3c2C(C)C)cn2ncnc2c1C` (stereo not drawn) [Example 91], the IC50 in assay [1] (setting [4]) is 27 nM; in assay [2] (setting [5]), 676 nM; in assay [3] it was 40 nM.

As to `Cc1c(-c2[nH]c3cnc(C4CCC(NC(C)C)CC4)c(C)c3c2C(C)C)cn2ncnc2c1C` (stereo not drawn) [Example 61], the IC50 in assay [1] (setting [4]) came out at 35 nM; in assay [2] (setting [5]), 346 nM; in assay [3] it was 28 nM.

Regarding `Cc1c(-c2[nH]c3cnc(C4CCNCC4)cc3c2C(C)C)cn2ncnc2c1C` [Example 28], the figures for the IC50 in assay [1] (setting [4]), in assay [2] (setting [5]) and in assay [3] were 26 nM, 608 nM and 13 nM, respectively.

Take `Cc1c(-c2[nH]c3cnc(C4CCC(NCC(C)(C)O)CC4)c(C)c3c2C(C)C)cn2ncnc2c1C` (stereo not drawn) [Example 92]: the IC50 in assay [1] (setting [4]) was 32 nM; in assay [2] (setting [5]), 548 nM; in assay [3] it was 34 nM.

Regarding `COc1cc(-c2[nH]c3cnc(C4CCC(N(C)CC(=O)N(C)C)CC4)c(F)c3c2C(C)C)cn2ncnc12` (stereo not drawn) [Example 79], the IC50 in assay [1] (setting [4]) was found to be 3.6 nM; in assay [2] (setting [5]) it was 842 nM; in assay [3], 3 nM.

Turning to `CCN(C)C1CCC(c2ncc3[nH]c(-c4cn5ncnc5c(C)c4C)c(C(C)C)c3c2C)CC1` (stereo not drawn) [Example 143], the IC50 in assay [1] (setting [4]) came to 33 nM; in assay [2] (setting [5]), 683 nM; in assay [3], 33 nM.

Consider `CNC(=O)CN1CCC(c2cc3c(C(C)C)c(-c4cc(C)c5ncnn5c4)[nH]c3cn2)CC1` [Example 287], for which the results for the IC50 in assay [1] (setting [4]), in assay [2] (setting [5]) and in assay [3] were 16 nM, 718 nM and 2 nM, respectively.

Turning to `COc1cc(-c2[nH]c3cnc(N4CCNCC4)c(F)c3c2C(C)C)cn2ncnc12` [Example 353, 6-(4-fluoro-3-isopropyl-5-(piperazin-1-yl)-1H-pyrrolo[2,3-c]pyridin-2-yl)-8-methoxy-[1,2,4]triazolo[1,5-a]pyridine], the figures for the IC50 in assay [1] (setting [4]), in assay [2] (setting [5]) and in assay [3] were 1.4 nM, 2530 nM and 0.61 nM, respectively.

`Cc1c(-c2[nH]c3cnc(N4CCN(C)C[C@H]4C)c(F)c3c2C(C)C)cn2ncnc2c1C` [Example 454]: the IC50 in assay [1] (setting [6]) came out at 0.05 nM; in assay [2] (setting [7]) it was 10900 nM; in assay [3], 0.05 nM.

On to `CCN(CCC#N)C1CCN(c2ncc3[nH]c(-c4cc(C)c5ncnn5c4)c(C(C)C)c3c2C)CC1` [Example 286], for which the IC50 is 2.2 nM in assay [1] (setting [4]), 2860 nM in assay [2] (setting [5]) and 2.2 nM in assay [3].

Take `COc1cc(-c2[nH]c3cnc(C4CCC(NCC(C)(C)OC)C4)cc3c2C(C)C)cn2ncnc12` (stereo not drawn) [Example 96]: the values for the IC50 in assay [1] (setting [4]), in assay [2] (setting [5]) and in assay [3] were 7.7 nM, 294 nM and 24 nM, respectively.

Take `Cc1cc(-c2[nH]c3cnc(C4CCN(C(=O)CN(C)C)CC4)cc3c2C(C)C)cn2ncnc12` [Example 5, 2-(dimethylamino)-1-(4-(3-isopropyl-2-(8-methyl-[1,2,4]triazolo[1,5-a]pyridine-6-yl)-1H-pyrrolo[2,3-c]pyridin-5-yl)piperidin-1-yl)ethan-1-one]: the IC50 in assay [1] (setting [4]) was found to be 100 nM; in assay [2] (setting [5]) it was 250 nM; in assay [3], 9.5 nM.

As to `COc1cc(-c2[nH]c3cnc(C4CCC(N5CC6(COC6)C5)C4)cc3c2C(C)C)cn2ncnc12` (stereo not drawn) [Example 208], the IC50 in assay [1] (setting [4]) is 16 nM; in assay [2] (setting [5]), 276 nM; in assay [3], 12 nM.

`COc1cc(-c2[nH]c3cnc(N4CCN(C5CCN(C(C)C)CC5)C[C@H]4C)c(F)c3c2C(C)C)cn2ncnc12` [Example 451]: the IC50 in assay [1] (setting [6]) stood at 5.7 nM; in assay [2] (setting [7]), 792 nM; in assay [3], 2.6 nM.

As for `Cc1cc(-c2[nH]c3cnc(N4CCC(N5CCC5)CC4)c(F)c3c2C(C)C)cn2ncnc12` [Example 70], the IC50 in assay [1] (setting [4]) worked out at 0.78 nM; in assay [2] (setting [5]), 4000 nM; in assay [3] it was 0.23 nM.

Consider `Cc1cc(-c2[nH]c3cnc(C4CCC(N(C)C(C)C)CC4)c(F)c3c2C(C)C)cn2ncnc12` (stereo not drawn) [Example 108], for which the IC50 in assay [1] (setting [4]) turned out to be 4 nM; in assay [2] (setting [5]), 2760 nM; in assay [3], 2.1 nM.

Regarding `COc1cc(-c2[nH]c3cnc(C4CCC(NC5COC5)C4)cc3c2C(C)C)cn2ncnc12` (stereo not drawn) [Example 273], the IC50 in assay [1] (setting [4]) turned out to be 16 nM; in assay [2] (setting [5]), 376 nM; in assay [3], 8.6 nM.

Regarding `COc1cc(-c2[nH]c3cnc(C4CCN(C(=O)CN(C)C)CC4)cc3c2C(C)C)cn2ncnc12` [Example 343], the IC50 in assay [1] (setting [4]) came out at 190 nM; in assay [2] (setting [5]), 217 nM; in assay [3] it was 28 nM.

Consider `COc1cc(-c2[nH]c3cnc(C4CCC(NC5CCOC5)CC4)cc3c2C(C)C)cn2ncnc12` (stereo not drawn) [Example 342], for which the IC50 in assay [1] (setting [4]) came out at 8.3 nM; in assay [2] (setting [5]) it was 224 nM; in assay [3], 3.8 nM.

Regarding `CNCC(=O)N1CCC(c2ncc3[nH]c(-c4cc(OC)c5ncnn5c4)c(C(C)C)c3c2C)CC1` [Example 12], the IC50 in assay [1] (setting [4]) was 273 nM; in assay [2] (setting [5]), 866 nM; in assay [3] it was 53 nM.

As to `Cc1cc(-c2[nH]c3cnc(C4CCC(N5CC6(COC6)C5)CC4)c(F)c3c2C(C)C)cn2ncnc12` (stereo not drawn) [Example 133], the figures for the IC50 in assay [1] (setting [4]), in assay [2] (setting [5]) and in assay [3] were 1.2 nM, 1360 nM and 0.52 nM, respectively.

In the case of `CCN(C)C1CCC(c2cc3c(C(C)C)c(-c4cc(OC)c5ncnn5c4)[nH]c3cn2)C1` (stereo not drawn) [Example 177], the IC50 in assay [1] (setting [4]) worked out at 4 nM; in assay [2] (setting [5]) it was 549 nM; in assay [3] it was 8.7 nM.

For the molecule `Cc1c(-c2[nH]c3cnc(N4CCN(CC5CC5)CC4)c(F)c3c2C(C)C)cn2ncnc2c1C` [Example 430], the IC50 in assay [1] (setting [4]) worked out at 0.27 nM; in assay [2] (setting [5]), 6110 nM; in assay [3], 5.9 nM.

`COc1cc(-c2[nH]c3cnc(C4CCC(NC(C)C)CC4)cc3c2C(C)C)cn2ncnc12` (stereo not drawn) [Example 323]: the IC50 is 20 nM in assay [1] (setting [4]), 258 nM in assay [2] (setting [5]) and 4.5 nM in assay [3].

For `COc1cc(-c2[nH]c3cnc(N4CCC(NCC5(C)COC5)CC4)c(C)c3c2C(C)C)cn2ncnc12` [Example 147], the IC50 in assay [1] (setting [4]) turned out to be 0.27 nM; in assay [2] (setting [5]) it was 2060 nM; in assay [3], 0.62 nM.

Consider `COCCN1CCC(c2ncc3[nH]c(-c4cc(C)c5ncnn5c4)c(C(C)C)c3c2F)CC1` [Example 183], for which the IC50 in assay [1] (setting [4]) came out at 3.4 nM; in assay [2] (setting [5]), 2450 nM; in assay [3] it was 1.8 nM.

As to `CNC(=O)CN1CCC(c2ncc3[nH]c(-c4cc(OC)c5ncnn5c4)c(C(C)C)c3c2F)CC1` [Example 20], the IC50 came out at 4.3 nM in assay [1] (setting [4]), 6550 nM in assay [2] (setting [5]) and 2.5 nM in assay [3].

On to `COc1cc(-c2[nH]c3cnc(N4CCN(C(=O)CN(C)C)CC4)c(Cl)c3c2C(C)C)cn2ncnc12` [Example 304], for which the IC50 came to 2.2 nM in assay [1] (setting [4]), 505 nM in assay [2] (setting [5]) and 1.5 nM in assay [3].

As to `Cc1c(-c2[nH]c3cnc(C4CCC(NC5COC5)CC4)c(F)c3c2C(C)C)cn2ncnc2c1C` (stereo not drawn) [Example 174], the IC50 is 0.67 nM in assay [1] (setting [4]), 7720 nM in assay [2] (setting [5]) and 0.78 nM in assay [3].

Take `CNC(=O)CN1CC2(C1)CN(c1ncc3[nH]c(-c4cn5ncnc5c(C)c4C)c(C(C)C)c3c1F)C2` [Example 395, 2-(6-(2-(7,8-dimethyl-[1,2,4]triazolo[1,5-a]pyridin-6-yl)-4-fluoro-3-isopropyl-1H-pyrrolo[2,3-c]pyridin-5-yl)-2,6-diazaspiro[3.3]heptan-2-yl)-N-methylacetamide]: the IC50 in assay [1] (setting [4]) came to 6.6 nM; in assay [2] (setting [5]), 17500 nM; in assay [3], 44 nM.

On to `Cc1c(-c2[nH]c3cnc(C4CCN(C(=O)CN(C)C)CC4)cc3c2C(C)C)cn2ncnc2c1C` [Example 36], for which the IC50 is 48 nM in assay [1] (setting [4]), 208 nM in assay [2] (setting [5]) and 19 nM in assay [3].

For `Cc1c(-c2[nH]c3cnc(N4CCN(CC(F)(F)F)C[C@H]4C)c(F)c3c2C(C)C)cn2ncnc2c1C` [Example 468], the IC50 in assay [1] (setting [6]) is 50 nM; in assay [2] (setting [7]), more than 50000 nM; in assay [3], 43 nM.

In the case of `CNCC(=O)N1CCC(c2ncc3[nH]c(-c4cc(C)c5ncnn5c4)c(C(C)C)c3c2F)CC1` [Example 39], the IC50 is 16 nM in assay [1] (setting [4]), 5530 nM in assay [2] (setting [5]) and 6.4 nM in assay [3].

Take `COc1cc(-c2[nH]c3cnc(C4CCNCC4)cc3c2C(C)C)cn2ncnc12` [Example 312]: the IC50 stood at 114 nM in assay [1] (setting [4]), 920 nM in assay [2] (setting [5]) and 8.5 nM in assay [3].

Consider `Cc1c(-c2[nH]c3cnc(N4CC5(CN(CC6(C)COC6)C5)C4)c(F)c3c2C(C)C)cn2ncnc2c1C` [Example 405], for which the IC50 in assay [1] (setting [4]) came out at 15 nM; in assay [2] (setting [5]) it was 17100 nM; in assay [3], 46 nM.

Regarding `Cc1cc(-c2[nH]c3cnc(N4CCC(NCC(C)(C)O)CC4)c(F)c3c2C(C)C)cn2ncnc12` [Example 258], the IC50 in assay [1] (setting [4]) was determined as 0.35 nM; in assay [2] (setting [5]) it was 6020 nM; in assay [3], 0.77 nM.
